Laboratory results taken from ChEMBL document CHEMBL4184137, “Lysine Deacetylase Inhibitors in Parasites: Past, Present, and Future Perspectives” (J Med Chem, 2017).

Experiments:
Plasmodium falciparum [1] = test: Antimalarial activity against Plasmodium falciparum using Malstat reagent by parasite lactate dehydrogenase assay; type: functional, organism-based
Vero = test: Cytotoxicity against African green monkey Vero cells by neutral red assay; type: cell-based; conditions: Chlorocebus sabaeus
[2] = Selectivity index, ratio of IC50 for African green monkey Vero cells to IC50 for Plasmodium falciparum; type: toxicity; conditions: read-out: Ratio IC50
[3] = Selectivity index, ratio of IC50 for human NFF cells to IC50 for transgenic GFP-fused Plasmodium falciparum NF54 […] gametocyte; type: toxicity; conditions: read-out: Ratio IC50
[4] = Selectivity index, ratio of IC50 for human NFF cells to IC50 for asexual-stage of Plasmodium falciparum 3D7; type: toxicity; conditions: read-out: Ratio IC50
Plasmodium falciparum [5] = test: Antimalarial activity against asexual-stage of Plasmodium falciparum 3D7 after 24 hrs by microbeta scintillation counting-based [3H]-hypoxanthine incorporation assay; type: functional, organism-based
NFF = test: Cytotoxicity against human NFF cells after 72 hrs by SRB assay; type: cell-based
Plasmodium falciparum [6] = test: Gametocytocidal activity against transgenic GFP-fused Plasmodium falciparum NF54 […] gametocytes after 72 hrs by Mitotracker Red CMH2XRos staining-based confocal microscopic method; type: functional, organism-based; conditions: NF54, 72 h
[7] = Selectivity index, ratio of IC50 for human NFF cells to IC50 for Trypanosoma brucei brucei; type: toxicity; conditions: read-out: Selectivity Index
[8] = Selectivity index, ratio of IC50 for human NFF cells to IC50 for Plasmodium falciparum; type: toxicity; conditions: read-out: Ratio IC50
Histone deacetylase = biological target: T1, Histone deacetylase (Plasmodium falciparum, UniProt Q9XYC7); test: Inhibition of HDAC1 in Plasmodium falciparum 3D7 nuclear extract using Ac-RGK(Ac)-AMC fluorogenic peptide as substrate preincubated for 1 hr followed by substrate addition measured after 10 min by fluorescence assay
T1 sequence (Q9XYC7 whole entry): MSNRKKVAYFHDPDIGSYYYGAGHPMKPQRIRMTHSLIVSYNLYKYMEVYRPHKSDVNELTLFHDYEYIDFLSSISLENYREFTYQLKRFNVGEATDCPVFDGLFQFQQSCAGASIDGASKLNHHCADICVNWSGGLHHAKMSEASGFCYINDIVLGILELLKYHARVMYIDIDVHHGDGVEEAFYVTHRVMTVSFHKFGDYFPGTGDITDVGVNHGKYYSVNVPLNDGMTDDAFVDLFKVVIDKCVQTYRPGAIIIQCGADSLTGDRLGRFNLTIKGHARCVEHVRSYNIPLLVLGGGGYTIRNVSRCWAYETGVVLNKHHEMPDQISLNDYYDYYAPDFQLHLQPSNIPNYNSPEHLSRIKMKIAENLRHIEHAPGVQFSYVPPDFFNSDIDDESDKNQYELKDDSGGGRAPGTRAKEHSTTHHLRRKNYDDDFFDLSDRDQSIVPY

[9] = Selectivity index, ratio of IC50 for HEK293 cells to IC50 for Trypanosoma brucei brucei; type: toxicity; conditions: human, read-out: Selectivity Index
[10] = Selectivity index, ratio of IC50 for HEK293 cells to IC50 for Plasmodium falciparum; type: toxicity; conditions: human, read-out: Ratio IC50
[11] = biological target: T2, Histone deacetylase (Plasmodium falciparum) (UniProt Q9XYC7); test: Inhibition of recombinant HDAC1 in recombinant Plasmodium falciparum at 1 uM using Ac-RGK(Ac)-AMC fluorogenic peptide as substrate preincubated for 1 hr followed by substrate addition measured after 10 min by fluorescence assay
T2 sequence (whole entry): T1 sequence (Q9XYC7 whole entry)

With `Cn1cc(C(=O)Cc2ccccc2)cc1/C=C/C(=O)NO` the IC50 (Plasmodium falciparum [1]) was 1.2 to 4 µM, the IC50 (Vero) was > 20 µM and the selectivity ratio [2] was 5 to 17.

Compound `CC(C)(C)c1ccc(NC(=O)NOCCCCCC(=O)NO)cc1` has a selectivity ratio [3] of 2, a selectivity ratio [4] of 31 and an IC50 (Plasmodium falciparum [5]) of 0.16 µM. For the same compound, the IC50 (NFF) was 4.9 µM and the IC50 (Plasmodium falciparum [6]) was 3.45 µM.

With `C/C=C1\NC(=O)[C@H]2CSSCC/C=C/[C@H](CC(=O)N[C@H](C(C)C)C(=O)N2)OC(=O)[C@H](C(C)C)NC1=O` [ROMIDEPSIN] the selectivity ratio [7] was < 1, the selectivity ratio [8] was < 1 and the IC50 (Histone deacetylase) was 0.0009 µM. The selectivity ratio [9] was < 1, the selectivity ratio [10] was < 1 and the inhibition [11] was 48%.
